Results reported in US9284322B2, “Nicotinic receptor compounds” (priority 2010, dated 2016).
Read-outs that look alike come from different tables or passages of the source.

Experiments:
[1] = test system: mice; assay: animal or person; format: in vivo, mouse; conditions: mice, s.c., 5 min after administration, recorded for 10 min
Experimental: Interruptions of the photocell beams (two banks of eight cells each) were then recorded for the next 10 min. Data were expressed as number of photocell interruptions.

[2] = target: heteromeric nAChRs containing alpha and beta subunits (αβ; alpha4 beta2 predominant) (Rattus norvegicus, UniProt P09483+P12390); format: binding; conditions: read-out: αβ [3H]Epibatidine (Ki)
Experimental: The alpha4 beta2 subtype is the predominant nAChR present in brain tissue used in this assay.
Adult male rat cerebral cortices (Pelfreeze Biological, Rogers, Ark.) were homogenized in 39 volumes of ice-cold 50 mM Tris buffer (pH 7.4 at 4° C.) containing 120 mM NaCl, 5 mM KCl, 2 mM CaCl2, and 1 mM MgCl2 and sedimented at 37,000 g for 10 min at 4° C. The supernatant was discarded, the pellet resuspended in the original volume of buffer, and the wash procedure repeated twice more. After the last centrifugation, the pellet was resuspended in 1/10 its original homogenization volume and stored at −80° C. until needed. […] After a 4-h incubation period at room temperature, the samples were vacuum-filtered over GF/B filter papers presoaked in 0.03% polyethylenimine using a Brandel 48-well harvester and washed with 6 mL of ice-cold buffer. The amount of radioactivity trapped on the filter was determined by standard liquid scintillation techniques in a TriCarb 2200 scintillation counter (Packard Instruments, Meriden, Conn.) at approximately 50% efficiency. The binding data were fit using the nonlinear regression analysis routines in Prism (Graphpad, San Diego, Calif.). The Ki values for the test compounds were calculated from their respective IC50 values using the Cheng-Prusoff equation.

[3] = test system: mice; format: in vivo, mouse; conditions: for AD50 Hot Plate: antagonist test
Experimental: Mice were placed into a 10 cm wide glass cylinder on a hot plate (Thermojust Apparatus) maintained at 55.0° C. Two control latencies at least […] apart were determined for each mouse. […] Antinociceptive response was calculated as percent maximum possible effect (% MPE), where % MPE=[(test−control)/40−control)×100]. The reaction time was scored when the animal jumped or licked its paws.
(§1) Table 6 provides data for a number of compounds of the invention that were tested according to the assays described above.

[4] = test system: mice; assay: animal or person; format: in vivo, mouse; conditions: mice, s.c., rectal temperature 30 min after injection
Experimental: Rectal temperature was measured by a thermistor probe (inserted 24 mm) and digital thermometer (Yellow Springs Instrument Co., Yellow Springs, Ohio). […] The difference in rectal temperature before and after treatment was calculated for each mouse. The ambient temperature of the laboratory varied from 21-24° C. from day to day.

[5] = test system: mice; format: in vivo, mouse; conditions: mice; for AD50 Tail Flick: antagonist test
Experimental: (§2) Antinociception was assessed by the tail-flick method of F. E. D'Amour and D. L. Smith (J. Pharmacol. Exp. Ther. 1941, 72, 74-79). A control response (2-4 sec) was determined for each mouse before treatment, and a test latency was determined after drug administration. In order to minimize tissue damage, a maximum latency of 10 sec was imposed. Antinociceptive response was calculated as percent maximum possible effect (% MPE), where % MPE=[(test−control)/(10−control)]×100. Groups of eight to twelve animals were used for each dose and for each treatment. […] Eight to twelve mice were treated per dose and a minimum of four doses were performed for dose-response curve determination.
as §1

[6] = target: homomeric nAChRs containing the alpha7 subunit (α7) (Rattus norvegicus (Rat), UniProt Q05941); assay: biochemical; format: binding; conditions: rat cerebral cortex homogenate, 40-50 pM [125I]MLA; read-out: α7 [125I]iodoMLA (Ki)
[7] = test system: mice; assay: animal or person; format: in vivo, mouse; conditions: mice, s.c.; for ED50 Hot Plate: tested 5 min after injection; for Hot Plate, % effect at dose (ED50 column): @ 10 mg/kg
Experimental: Mice were placed into a 10 cm wide glass cylinder on a hot plate (Thermojust Apparatus) maintained at 55.0° C. Two control latencies at least […] apart were determined for each mouse. The normal latency (reaction time) was 8 to 12 sec. Antinociceptive response was calculated as percent maximum possible effect (% MPE), where % MPE=[(test−control)/40−control)×100]. The reaction time was scored when the animal jumped or licked its paws.

[8] = test system: mice; assay: animal or person; format: in vivo, mouse; conditions: mice, s.c.; for ED50 Tail Flick: tested 5 min after injection; for Tail Flick, % effect at dose (ED50 column): @ 10 mg/kg
Experimental: as §2

homomeric nAChRs containing the alpha7 subunit (α7), sequence (Q05941 23-502 limits assumed): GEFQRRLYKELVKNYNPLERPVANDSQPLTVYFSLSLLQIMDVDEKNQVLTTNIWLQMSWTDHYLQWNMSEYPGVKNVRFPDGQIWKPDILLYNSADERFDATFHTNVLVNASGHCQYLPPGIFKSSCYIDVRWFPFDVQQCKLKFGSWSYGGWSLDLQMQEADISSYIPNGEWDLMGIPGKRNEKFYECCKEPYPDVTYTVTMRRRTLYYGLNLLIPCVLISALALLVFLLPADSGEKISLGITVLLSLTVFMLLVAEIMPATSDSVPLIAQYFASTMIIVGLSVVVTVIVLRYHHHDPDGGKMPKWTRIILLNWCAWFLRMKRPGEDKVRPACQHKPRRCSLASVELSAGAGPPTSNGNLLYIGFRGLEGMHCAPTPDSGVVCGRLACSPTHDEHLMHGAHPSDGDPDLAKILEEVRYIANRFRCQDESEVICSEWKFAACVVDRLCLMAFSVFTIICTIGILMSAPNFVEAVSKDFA

SMILES | ED50 Spontaneous Activity [1] | Ki [2] [nM] | Hot Plate, % effect at dose ([3]; @ 1000 μg/kg) [% @ 1000] | ED50 Hypothermia [4] | AD50 Tail Flick [5] | Ki [6] [nM] | ED50 Hot Plate [7] | ED50 Tail Flick [8] | Hot Plate, % effect at dose ([3]; @ 100 μg/kg) [% @ 100] | Tail Flick, % effect at dose ([5]; @ 100 μg/kg) [% @ 100] | AD50 Hot Plate [3] | Hot Plate, % effect at dose (ED50 column) [7] [% @ 10] | Tail Flick, % effect at dose (ED50 column) [8] [% @ 10] | Hot Plate, % effect at dose ([3]; @ 10 μg/kg) [% @ 10] | Hot Plate, % effect at dose ([3]; @ 10,000 μg/kg)
Fc1ncc(C2CC3CCC2N3)cc1-c1cccnc1 (centres unmarked) | 0.69 (0.4-12.8) mg/kg | 0.35 ± 0.038 | 10 | 3.7 (2.9-4.5) mg/kg | 3 (0.5-24) μg/kg | 5500 ± 1420 | 5 (3.7-6.7) mg/kg | 4.9 (3.6-6.7) mg/kg | – | – | – | – | – | – | –
Fc1ccc(-c2cc(C3CC4CCC3N4)cnc2F)cn1 (centres unmarked) | 0.38 (0.13-1.1) mg/kg | 0.049 ± 0.02 | – | 0.68 (0.52-1.1) mg/kg | – | 4850 ± 1800 | 3.27 (2.1-5.3) mg/kg | 3.6 (2.7-4.7) mg/kg | 1 | 1 | – | – | – | – | –
Fc1ncc(C2CC3CCC2N3)cc1-c1ccc(Cl)nc1 (centres unmarked) | 1.58 (0.5-4.4) mg/kg | 0.063 ± 0.08 | – | 3.11 (1.5-5.1) mg/kg | 9 (2-38) μg/kg | 6600 ± 731 | – | – | – | – | 2001 (297-3610) μg/kg | 27 | 10 | – | –
Nc1ccc(-c2cc(C3CC4CCC3N4)cnc2F)cn1 (centres unmarked) | 1.84 (0.5-6.3) mg/kg | 0.25 ± 0.033 | – | 2.8 (2-3.8) mg/kg | 30 (3-35) μg/kg | 1470 ± 203 | – | – | – | – | – | 8 | 5 | 50 | –
COc1ccc(-c2cc(C3CC4CCC3N4)cnc2F)cn1 (centres unmarked) | 0.53 (0.19-1.1) mg/kg | 0.13 ± 0.027 | – | 0.77 (0.51-1.2) mg/kg | 21 (3-125) μg/kg | 524 ± 110 | 1.72 (0.9-3.4) mg/kg | 4.22 (3-5.3) mg/kg | 0 | – | – | – | – | – | –
Fc1ncc(C2CC3CCC2N3)cc1-c1ccncc1 (centres unmarked) | 0.38 (0.2-2.7) mg/kg | 0.12 ± 0.03 | – | 1.69 (1.1-2.6) mg/kg | 12 (10-172) μg/kg | 9700 ± 2400 | – | – | – | – | 290 (19-991) μg/kg | 40 | 13 | – | –
Fc1cc(-c2cc(C3CC4CCC3N4)cnc2F)ccn1 (centres unmarked) | 0.17 (0.08-1.5) mg/kg | 0.067 ± 0.01 | – | 1.58 (0.97-2.1) mg/kg | 4 (0.1-70) μg/kg | 7300 ± 150 | – | – | – | – | 117 (110-1100) μg/kg | 18 | 5 | – | –
Fc1ncc(C2CC3CCC2N3)cc1-c1ccnc(Cl)c1 (centres unmarked) | 1.01 (0.27-3.7) mg/kg | 1.18 ± 0.14 | – | 2.74 (1.89-3.5) mg/kg | 320 (45-3262) μg/kg | > 10000 | – | – | – | – | 1370 (180-1430) μg/kg | 19 | 11 | – | –
Nc1cc(-c2cc(C3CC4CCC3N4)cnc2F)ccn1 (centres unmarked) | 0.61 (0.04-9.1) mg/kg | 0.13 ± 0.005 | – | 1.87 (0.1-3.5) mg/kg | 9 (0.4-19) μg/kg | 719 ± 101 | – | – | – | – | – | 12 | 11 | – | 10% @ 10,000
COc1cc(-c2cc(C3CC4CCC3N4)cnc2F)ccn1 (centres unmarked) | – | 0.04 ± 0.012 | – | – | – | 7900 ± 1080 | – | – | – | – | – | – | – | – | –
